Results from ChEMBL document CHEMBL1148726, “Allosteric inhibitors of hepatitis C polymerase: discovery of potent and orally bioavailable carbon-linked dihydropyrones” (J Med Chem, 2007).
Values belong to the compound of their own block, whether it stands above or below them. The source made the active and inactive calls. No cut-off for these calls is given here.

Assays:
[1] = Inhibition of HCV 1b NS5B delta21 RNA dependent RNA polymerase by enzymatic assay; design: species or system Hepacivirus hominis
[2] = test system: Hepatitis C virus; assay: Antiviral activity against Hepatitis C virus infected Huh7 cells; format: functional, organism-based, Hepacivirus hominis, Huh-7
[3] = Ratio of EC50 for HCV in Huh7 cells to IC50 for HCV NS5 B delta 21 polymerase; format: functional, Hepacivirus hominis, Huh-7
[4] = Cytotoxic against Huh7 cells; format: cell-based, Huh-7; conditions: human
[5] = Total plasma clearance in rat at 25 mg/kg, po or 5 mg/kg, iv; format: ADME, organism-based
[6] = (§1) Volume of distribution in rat at 25 mg/kg, po or 5 mg/kg, iv; format: ADME, organism-based; conditions: in vivo, read-out: Vdss
[7] = (§2) Half life in rat at 25 mg/kg, po or 5 mg/kg, iv; format: ADME, organism-based; conditions: in vivo
[8] = Fraction absorption in rat at 25 mg/kg, po; format: ADME, organism-based; design: dose 25 mg/kg, route oral; conditions: in vivo
[9] = Bioavailability in rat at 25 mg/kg, po; format: ADME, organism-based; conditions: in vivo
[10] = Permeability from apical to basolateral side of the Caco-2 cell membrane; format: ADME, cell-based; conditions: human
[11] = Permeability from basolateral to apical side of the Caco-2 cell membrane; format: ADME, cell-based; conditions: human
[12] = test system: Rattus norvegicus; assay: (§3) Bioavailability in rat at 10 mg/kg, po; format: ADME, organism-based; conditions: in vivo
[13] = (§4) Inhibition of HCV 1a NS5B delta21 RNA dependent RNA polymerase by enzymatic assay; design: species or system Hepacivirus hominis
[14] = Fraction absorption in rat at 10 mg/kg, po; format: ADME, organism-based; design: dose 10 mg/kg, route oral; conditions: in vivo
[15] = as §3; format: ADME, organism-based; conditions: in vivo
[16] = Total plasma clearance in rat at 10 mg/kg, po or 2 mg/kg, iv; format: ADME, organism-based
[17] = Volume of distribution in rat at 10 mg/kg, po or 2 mg/kg, iv; format: ADME, organism-based; conditions: in vivo, read-out: Vdss
[18] = Half life in rat at 10 mg/kg, po or 2 mg/kg, iv; format: ADME, organism-based; conditions: in vivo
[19] = test system: Hepacivirus hominis; assay: as §4
[20] = test system: Rattus norvegicus; assay: as §1; format: ADME, organism-based; conditions: in vivo
[21] = test system: Rattus norvegicus; assay: as §2; format: ADME, organism-based; conditions: in vivo

SMILES: COc1ccc(CCC2(C3CCCC3)CC(O)=C(Sc3nc4nc(C)cc(C)n4n3)C(=O)O2)cc1Cl (stereo not given)
IC50 [1]: 36 nM
EC50 ([2]; Hepatitis C virus, Huh-7): 3250 nM
Ratio [3]: 90
CC50 ([4]; Huh7 cells): > 100000 nM
clearance [5]: 14.8 mL/min/kg
Vd [6]: 2 L/kg
half-life [7]: 90 min
Fa [8]: 2.5%
bioavailability [9]: 2%
Papp A→B [10]: 3 ×10⁻⁶ cm/s
Papp B→A [11]: 2.3 ×10⁻⁶ cm/s

SMILES: CCOc1ccc(CCC2(C3CCCC3)CC(O)=C(Cc3nc4nc(C)cc(C)n4n3)C(=O)O2)cc1Cl (stereo not given)
IC50 [1]: 4 nM
EC50 ([2]; Hepatitis C virus, Huh-7): 320 nM
CC50 ([4]; Huh7 cells): > 32000 nM

SMILES: COc1ccc(CCC2(C3CCCC3)CC(O)=C(Cc3nc4nc(C)cc(C)n4n3)C(=O)O2)cc1C (stereo not given)
IC50 [1]: 54 nM
EC50 ([2]; Hepatitis C virus, Huh-7): 1200 nM
CC50 ([4]; Huh7 cells): > 32000 nM

SMILES: Cc1cc(C)n2nc(CC3=C(O)CC(CCc4ccc(S(C)(=O)=O)c(Cl)c4)(C4CCCC4)OC3=O)nc2n1 (stereo not given)
IC50 [1]: 60 nM
EC50 ([2]; Hepatitis C virus, Huh-7): 610 nM
CC50 ([4]; Huh7 cells): > 32000 nM

SMILES: Cc1cc(SC2=C(O)OC(CCc3ccc(O)cc3)(C3CCCC3)CC2=O)c(C(C)(C)C)cc1N (stereo not given)
IC50 [1]: 930 nM

SMILES: Cc1cc(C)n2nc(CC3=C(O)CC(CCc4ccc(C(C)(C)NS(C)(=O)=O)c(F)c4)(C4CCCC4)OC3=O)nc2n1 (stereo not given)
IC50 [1]: 17 nM
EC50 ([2]; Hepatitis C virus, Huh-7): 110 nM
CC50 ([4]; Huh7 cells): > 32000 nM

SMILES: COc1ccc(CCC2(C3CCCC3)CC(O)=C(Cc3nc4nc(C)cc(C)n4n3)C(=O)O2)cc1F (stereo not given)
IC50 [1]: 15 nM
EC50 ([2]; Hepatitis C virus, Huh-7): 400 nM
CC50 ([4]; Huh7 cells): > 32000 nM

The next lines start with results.

clearance [5]: 3.7 mL/min/kg
Vd [6]: 0.3 L/kg
half-life [7]: 52.8 min
F [12]: 31%
IC50 [13]: 70 nM
SMILES: Cc1cc(C)n2nc(CC3=C(O)CC(CCc4ccc(C(C)(C)C#N)c(F)c4)(C4CCCC4)OC3=O)nc2n1 (single isomer, unassigned; enantiomer 1)
CC50 ([4]; huh-7): 320000 nM

IC50 [1]: 20 nM
EC50 ([2]; Hepatitis C virus, Huh-7): 330 nM
Fa [14]: 48%
bioavailability [15]: 42%
Papp A→B [10]: 10 ×10⁻⁶ cm/s
clearance [16]: 8.3 mL/min/kg
Vd [17]: 0.3 L/kg
Papp B→A [11]: 6.8 ×10⁻⁶ cm/s
half-life [18]: 30 min
SMILES: COc1ccc(CCC2(C3CCCC3)CC(O)=C(Cc3nc4nc(C)cc(C)n4n3)C(=O)O2)cc1Cl (stereo not given)
Ratio [3]: 17
CC50 ([4]; Huh7 cells): > 32000 nM

IC50 [1]: 3 nM
EC50 ([2]; huh-7): 30 nM
SMILES: Cc1cc(C)n2nc(CC3=C(O)CC(CCc4ccc(C(C)(C)C#N)c(F)c4)(C4CCCC4)OC3=O)nc2n1 (stereo in doubt; 22)
CC50 ([4]; huh-7): > 32000 nM

Activity [19]: inactive
SMILES: Cc1cc(C)n2nc(CC3=C(O)CC(CCc4ccc(C(C)(C)C#N)c(F)c4)(C4CCCC4)OC3=O)nc2n1 (single isomer, unassigned; enantiomer 2) [listing 1 of 2 here]

IC50 [1]: 1 nM
EC50 ([2]; huh-7): 32 nM
Vdss [20]: 0.17 L/kg
t1/2 [21]: 28.2 min
bioavailability [15]: 37%
SMILES: Cc1cc(C)n2nc(CC3=C(O)CC(CCc4ccc(C(C)(C)C#N)c(F)c4)(C4CCCC4)OC3=O)nc2n1 (single isomer, unassigned; enantiomer 2) [listing 2 of 2 here]

IC50 [1]: 2 nM
SMILES: Cc1cc(C)n2nc(CC3=C(O)CC(CCc4ccc(C(C)(C)C#N)c(Cl)c4)(C4CCCC4)OC3=O)nc2n1 (stereo not given)
CC50 ([4]; Huh7 cells): > 32000 nM
